According to ChEMBL document CHEMBL1201862, “PubChem BioAssay data set” (2004):
Calls of active or inactive are those of the source.

How the values were obtained:
[1] = molecular target: Nuclear receptor subfamily 5 group A member 2 (Homo sapiens, UniProt O00482); type: functional, cell-based;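 note: HEK293T cells transfected with LRH-1 and a StAR promoter luciferase reporter; potency for inhibitors that lower LRH-1 driven reporter light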
Steroidogenic factor 1 = Steroidogenic factor 1 (Homo sapiens, UniProt Q13285); test: Counterscreen for inverse agonists of the liver receptor homolog-1 (LRH-1; NR5A2): Luminescence-based cell-based high throughput dose response assay to identify inverse agonists of the Steroidogenic Factor 1 Nuclear Receptor (SF1; NR5A1).; type: functional
[2] = StAR promoter reporter inhibition counter-screen, dose response, counter-screen for LRH-1 inverse agonist project, cell-based, luminescence, luciferase reporter (AID 651969); type: functional
[3] = inhibitors of HIV Env-driven cell fusion, dose response, cherry-pick (AID 652057); type: functional, cell-based
[4] = ZM109 Env clade C HIV-1 fusion inhibitors, dose response, HeLa effector, CEM target cells, luciferase, cherry-pick (AID 652058); type: functional, cell-based
[5] = inhibitors of clade B AD8 Env fusion, dose response, cell-based, cherry-pick (AID 652062); type: functional;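 note: luciferase signal from cell-cell fusion driven by HIV-1 clade B AD8 Env; potency is for inhibitors of fusion seen as a drop in luminescence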
[6] = molecular target: T1, Calpain-2 catalytic subunit (Sus scrofa, UniProt P43367); test: pig calpain II inhibitor potency, dose response, biochemical, fluorogenic peptide substrate (AID 1420); type: functional
T1 sequence (P43367 whole entry): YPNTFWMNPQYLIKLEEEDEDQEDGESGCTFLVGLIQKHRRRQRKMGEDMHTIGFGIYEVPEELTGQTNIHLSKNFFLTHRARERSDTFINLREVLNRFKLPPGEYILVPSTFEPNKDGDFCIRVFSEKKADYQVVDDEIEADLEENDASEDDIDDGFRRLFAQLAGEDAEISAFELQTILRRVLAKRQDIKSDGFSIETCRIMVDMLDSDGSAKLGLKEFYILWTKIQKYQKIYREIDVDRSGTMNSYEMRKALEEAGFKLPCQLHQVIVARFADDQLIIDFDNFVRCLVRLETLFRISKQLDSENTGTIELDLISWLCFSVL

Caspase-3 = molecular target: T2, Caspase-3 (Homo sapiens, UniProt P42574); type: functional;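 note: Dose-response selectivity test against caspase-3 for candidate inhibitors of sentrin-specific proteases (SENPs)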
T2 sequence (P42574 whole entry): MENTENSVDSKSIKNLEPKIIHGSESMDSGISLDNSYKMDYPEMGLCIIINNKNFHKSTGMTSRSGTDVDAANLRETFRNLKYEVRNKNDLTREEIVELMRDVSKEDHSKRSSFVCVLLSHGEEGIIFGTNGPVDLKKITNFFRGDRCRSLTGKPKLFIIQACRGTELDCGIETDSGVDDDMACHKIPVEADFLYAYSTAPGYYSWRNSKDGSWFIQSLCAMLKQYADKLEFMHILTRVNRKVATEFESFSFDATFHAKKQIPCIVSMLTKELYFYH

[7] = molecular target: T3, Sentrin-specific protease 7 (Homo sapiens, UniProt Q9BQF6); type: functional;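 note: Luminescence-based dose-response confirmation of ultra-high-throughput screening hits, measuring inhibition of SENP7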
T3 sequence (Q9BQF6 whole entry): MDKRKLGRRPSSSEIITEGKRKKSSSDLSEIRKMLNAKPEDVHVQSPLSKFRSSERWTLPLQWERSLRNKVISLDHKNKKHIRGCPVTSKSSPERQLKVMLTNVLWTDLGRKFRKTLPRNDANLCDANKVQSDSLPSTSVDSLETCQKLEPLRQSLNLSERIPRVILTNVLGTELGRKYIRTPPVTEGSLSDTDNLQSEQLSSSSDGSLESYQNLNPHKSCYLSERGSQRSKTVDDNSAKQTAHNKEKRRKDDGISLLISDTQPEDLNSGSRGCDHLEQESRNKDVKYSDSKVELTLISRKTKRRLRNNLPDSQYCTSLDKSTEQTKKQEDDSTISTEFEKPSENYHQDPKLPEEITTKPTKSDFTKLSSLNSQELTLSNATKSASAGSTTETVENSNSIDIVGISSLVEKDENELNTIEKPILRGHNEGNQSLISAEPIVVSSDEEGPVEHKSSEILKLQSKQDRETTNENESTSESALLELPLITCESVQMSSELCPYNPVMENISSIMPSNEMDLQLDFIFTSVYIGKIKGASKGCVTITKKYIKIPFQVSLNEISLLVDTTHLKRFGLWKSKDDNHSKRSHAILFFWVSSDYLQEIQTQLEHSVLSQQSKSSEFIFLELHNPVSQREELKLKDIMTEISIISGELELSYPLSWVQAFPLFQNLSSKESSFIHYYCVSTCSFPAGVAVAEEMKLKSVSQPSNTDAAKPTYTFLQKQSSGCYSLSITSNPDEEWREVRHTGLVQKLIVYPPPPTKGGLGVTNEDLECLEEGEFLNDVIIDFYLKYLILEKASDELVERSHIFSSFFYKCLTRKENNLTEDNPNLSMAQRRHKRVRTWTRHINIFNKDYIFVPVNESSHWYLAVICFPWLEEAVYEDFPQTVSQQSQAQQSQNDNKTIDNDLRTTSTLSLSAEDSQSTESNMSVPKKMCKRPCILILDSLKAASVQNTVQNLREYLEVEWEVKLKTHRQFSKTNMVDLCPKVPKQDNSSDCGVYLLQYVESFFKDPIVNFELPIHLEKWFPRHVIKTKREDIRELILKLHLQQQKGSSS

[8] = molecular target: T4, Sentrin-specific protease 6 (Homo sapiens, UniProt Q9GZR1); type: functional;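 note: Luminescence-based dose-response confirmatory assay of SENP6 inhibition, following up an ultra-high-throughput screen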
T4 sequence (Q9GZR1 whole entry): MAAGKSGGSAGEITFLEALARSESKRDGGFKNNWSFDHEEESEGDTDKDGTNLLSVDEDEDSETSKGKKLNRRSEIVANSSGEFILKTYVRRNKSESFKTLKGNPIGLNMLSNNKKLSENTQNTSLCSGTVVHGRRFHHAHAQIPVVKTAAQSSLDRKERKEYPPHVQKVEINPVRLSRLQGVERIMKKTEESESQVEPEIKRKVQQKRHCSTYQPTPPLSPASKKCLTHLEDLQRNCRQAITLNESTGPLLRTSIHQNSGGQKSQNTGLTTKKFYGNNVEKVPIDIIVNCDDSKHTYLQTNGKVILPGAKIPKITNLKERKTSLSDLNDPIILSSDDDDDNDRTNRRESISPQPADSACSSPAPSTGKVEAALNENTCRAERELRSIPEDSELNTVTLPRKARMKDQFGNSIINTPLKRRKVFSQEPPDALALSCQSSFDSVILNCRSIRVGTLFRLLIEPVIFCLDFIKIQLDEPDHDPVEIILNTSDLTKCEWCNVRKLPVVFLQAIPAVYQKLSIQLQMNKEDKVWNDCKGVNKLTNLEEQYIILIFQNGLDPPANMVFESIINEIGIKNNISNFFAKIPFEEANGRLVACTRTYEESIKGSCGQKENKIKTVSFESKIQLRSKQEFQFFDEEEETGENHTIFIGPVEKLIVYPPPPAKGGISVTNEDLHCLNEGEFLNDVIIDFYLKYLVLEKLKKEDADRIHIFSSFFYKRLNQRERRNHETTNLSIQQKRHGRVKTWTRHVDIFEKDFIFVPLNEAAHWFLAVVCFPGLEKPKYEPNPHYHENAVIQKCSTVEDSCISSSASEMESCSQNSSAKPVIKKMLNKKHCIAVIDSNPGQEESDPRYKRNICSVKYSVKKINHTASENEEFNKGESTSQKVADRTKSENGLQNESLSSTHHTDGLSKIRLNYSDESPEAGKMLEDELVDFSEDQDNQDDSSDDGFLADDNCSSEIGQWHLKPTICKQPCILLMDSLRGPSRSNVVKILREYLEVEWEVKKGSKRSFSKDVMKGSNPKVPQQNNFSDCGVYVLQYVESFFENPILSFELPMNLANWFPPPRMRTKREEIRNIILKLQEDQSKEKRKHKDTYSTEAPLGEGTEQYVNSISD

[9] = molecular target: T5, Sentrin-specific protease 8 (Homo sapiens, UniProt Q96LD8); type: functional;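 note: luminescence read-out of SENP8 inhibition, dose-response confirmation following an ultra-high-throughput screen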
T5 sequence (Q96LD8 whole entry): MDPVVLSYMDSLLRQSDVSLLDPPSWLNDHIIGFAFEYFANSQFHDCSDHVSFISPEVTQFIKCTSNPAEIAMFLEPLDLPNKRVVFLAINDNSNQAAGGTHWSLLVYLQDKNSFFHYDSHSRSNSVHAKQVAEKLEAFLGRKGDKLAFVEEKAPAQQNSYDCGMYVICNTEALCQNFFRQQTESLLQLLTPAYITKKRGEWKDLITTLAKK

[10] = intracellular Trypanosoma cruzi inhibitors in host cells – cell-based, plate reader, cherry-pick samples, set 3, dose response (AID 651818); type: functional;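 note: compounds incubated with infected cells for about four days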
[11] = molecular target: T6, Polyadenylate-binding protein 1 (Homo sapiens, UniProt P11940); test: PABP1 MLLE–PAM2 interaction inhibitors, dose response, miRNA deadenylation inhibitor project, biochemical, fluorescence polarization, Cy5-PAM2 peptide, secondary (AID 602260); type: functional; conditions: read-out: IC50_Mean
[12] = molecular target: T6, Polyadenylate-binding protein 1; test: PABP1 MLLE–PAM2 binding inhibitor potency, dose response, biochemical, fluorescence polarization, FITC-PAM2 peptide (AID 602259); type: functional; conditions: read-out: IC50_Mean
[13] = tested on: Streptococcus sp. 'group A'; test: growth inhibition of control SK(-) GAS strain, dose response, counter-screen for streptokinase expression inhibitor project, luminescence, kanamycin, BacTiterGlo, confirmation (AID 1900); type: functional, organism-based
Streptococcus = test: Group A Streptococcus viability loss, dose response, counter-screen for streptokinase expression inhibitor project, luminescence, BacTiterGlo (AID 1915); type: functional, organism-based;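 note: potency for reduction of bacterial viability or growth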

Chain of Steroidogenic factor 1 (Q13285 whole entry): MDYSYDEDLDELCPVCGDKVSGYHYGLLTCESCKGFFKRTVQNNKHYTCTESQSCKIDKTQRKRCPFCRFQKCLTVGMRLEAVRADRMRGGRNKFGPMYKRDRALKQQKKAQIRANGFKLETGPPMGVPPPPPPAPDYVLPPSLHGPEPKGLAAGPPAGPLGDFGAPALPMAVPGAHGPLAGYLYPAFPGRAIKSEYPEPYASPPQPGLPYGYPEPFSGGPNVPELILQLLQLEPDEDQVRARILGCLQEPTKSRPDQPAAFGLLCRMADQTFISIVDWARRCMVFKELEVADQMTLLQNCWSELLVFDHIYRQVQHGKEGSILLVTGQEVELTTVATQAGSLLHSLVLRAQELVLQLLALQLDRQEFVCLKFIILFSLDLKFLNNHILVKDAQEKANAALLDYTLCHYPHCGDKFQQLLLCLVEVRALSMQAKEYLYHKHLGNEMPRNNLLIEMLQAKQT
Chain of Nuclear receptor subfamily 5 group A member 2 (O00482 whole entry): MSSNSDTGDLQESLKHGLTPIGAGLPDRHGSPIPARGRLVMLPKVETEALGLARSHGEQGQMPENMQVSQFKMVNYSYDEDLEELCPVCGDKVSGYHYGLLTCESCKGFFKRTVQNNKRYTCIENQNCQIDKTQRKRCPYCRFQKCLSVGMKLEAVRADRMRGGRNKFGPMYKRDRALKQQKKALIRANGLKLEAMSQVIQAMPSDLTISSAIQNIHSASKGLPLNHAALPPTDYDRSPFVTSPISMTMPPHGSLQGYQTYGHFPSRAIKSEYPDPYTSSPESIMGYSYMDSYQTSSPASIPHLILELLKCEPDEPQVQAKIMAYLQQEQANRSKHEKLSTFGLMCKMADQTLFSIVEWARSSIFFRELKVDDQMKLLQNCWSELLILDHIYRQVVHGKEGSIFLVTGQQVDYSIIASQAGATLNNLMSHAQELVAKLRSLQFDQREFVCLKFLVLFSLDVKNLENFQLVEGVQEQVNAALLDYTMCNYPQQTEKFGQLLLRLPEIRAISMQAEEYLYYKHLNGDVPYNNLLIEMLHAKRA
T6 sequence (P11940 whole entry): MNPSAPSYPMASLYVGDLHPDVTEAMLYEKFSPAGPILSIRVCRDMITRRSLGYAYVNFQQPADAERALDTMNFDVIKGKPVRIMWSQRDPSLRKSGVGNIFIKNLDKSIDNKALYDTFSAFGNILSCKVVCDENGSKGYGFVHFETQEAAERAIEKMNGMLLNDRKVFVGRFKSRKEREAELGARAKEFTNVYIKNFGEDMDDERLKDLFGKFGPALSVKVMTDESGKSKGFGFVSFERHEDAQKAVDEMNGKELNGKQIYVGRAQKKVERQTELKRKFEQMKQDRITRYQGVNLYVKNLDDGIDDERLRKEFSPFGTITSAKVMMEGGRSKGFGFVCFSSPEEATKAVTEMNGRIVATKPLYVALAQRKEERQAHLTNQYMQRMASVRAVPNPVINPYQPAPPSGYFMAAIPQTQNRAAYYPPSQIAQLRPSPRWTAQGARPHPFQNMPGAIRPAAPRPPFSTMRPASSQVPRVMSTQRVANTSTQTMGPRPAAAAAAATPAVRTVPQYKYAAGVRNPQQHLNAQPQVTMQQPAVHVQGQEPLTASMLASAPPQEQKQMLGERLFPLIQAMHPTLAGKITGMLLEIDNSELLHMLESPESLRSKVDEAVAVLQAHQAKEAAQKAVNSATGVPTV

COc1ccc(CCNC(=O)CSc2nn3c(=O)c(C)nnc3s2)cc1OC
IC50 [1]: 35.9 µM (inactive) | IC50 (Steroidogenic factor 1): 12 µM (inactive) | IC50 [2]: 35.9 µM (inactive)

Cc1ccc(S(=O)(=O)Nc2cccc3c2O[C@H](CN(C)Cc2ccc(Cl)c(Cl)c2)[C@H](C)CN([C@H](C)CO)C3=O)cc1
AC50 [3]: < 0.26 µM (active) | AC50 [4]: 0.308 µM (active) | AC50 [5]: 1.37 µM (active)

Cc1cc(C(=O)Nc2ccc(N3CCCC3)c(Cl)c2)ccc1[N+](=O)[O-]
IC50 [6]: 2.99 µM (not active) | IC50 (Caspase-3): 28.2 µM (active) | IC50 [7]: 5.48 µM (active) | IC50 [8]: > 100 µM (inactive) | IC50 [9]: > 100 µM (inactive)

CCCOc1ccc(NC(=O)CC2C(=O)N(C)C(=S)N2Cc2ccc3c(c2)OCO3)cc1 (configuration not stated)
IC50 [1]: 1.67 µM (active) | IC50 (Steroidogenic factor 1): 2.03 µM (active) | IC50 [2]: 35.9 µM (inactive)

COc1cccc(S(=O)(=O)N(C)C[C@H]2Oc3cc(C#CCC(C)C)ccc3S(=O)(=O)N([C@H](C)CO)C[C@H]2C)c1
AC50 [3]: 34.5 µM (active) | AC50 [5]: 17.9 µM (active)

COc1ccc(NC(=O)Nc2ccc3c(c2)C(=O)N([C@H](C)CO)C[C@H](C)[C@H](CN(C)Cc2ccc(Cl)c(Cl)c2)OCCCC[C@@H](C)O3)cc1
AC50 [10]: 7.11 µM (active)

O=C(COC(=O)CCN1C(=O)C2CC=CCC2C1=O)NCCc1ccccc1 (configuration not stated)
IC50 [1]: 38 µM (inactive) | IC50 (Steroidogenic factor 1): 25.8 µM (inactive) | IC50 [2]: 35.9 µM (inactive)

COc1ccc(CCNC(=O)CN2C(=O)NC3(CCCCC3C)C2=O)cc1 (configuration not stated)
IC50 [1]: 1.31 µM (active) | IC50 (Steroidogenic factor 1): 4.78 µM (active) | IC50 [2]: 35.9 µM (inactive)

Cc1ccc(-n2nnnc2-c2cnn(-c3ccc(F)cc3)c2C(F)(F)F)cc1
AC50 [5]: 33.9 µM (active)

COc1cccc(-c2nc(=S)c3c(o2)CCCC3)c1
IC50 (Caspase-3): 24.9 µM (active) | IC50 [7]: 8.32 µM (active) | IC50 [8]: 20.5 µM (active) | IC50 [9]: 27.4 µM (active) | IC50 [11]: > 66 µM (inactive) | IC50 [12]: > 66 µM (inactive)

C[C@H](CO)N1C[C@H](C)[C@H](CN(C)Cc2ccc(C(=O)Nc3ccccc3N)cc2)Oc2ccc(NC(=O)Nc3ccc4c(c3)OCO4)cc2CC1=O
AC50 [10]: 2.08 µM (active)

C#CCN1C(=O)S/C(=C\c2ccc(-c3ccc(Cl)c(C(=O)O)c3)o2)C1=O
EC50 [13]: 2.41 µM (active) | EC50 (Streptococcus): 5.9 µM (active) | IC50 (Caspase-3): 29.6 µM (active) | IC50 [7]: 7.59 µM (active) | IC50 [8]: 11.6 µM (active) | IC50 [9]: 14.9 µM (active)

C[C@H](CO)N1C[C@H](C)[C@@H](CN(C)CC2CCCCC2)Oc2c(NC(=O)c3nc4ccccc4s3)cccc2C1=O
AC50 [10]: 1.21 µM (active)

CC(C)Oc1cccc(-c2cc(C(=O)NN3CCOCC3)c3ccccc3n2)c1
IC50 [1]: 35.9 µM (inactive) | IC50 (Steroidogenic factor 1): 15.9 µM (inactive) | IC50 [2]: 35.9 µM (inactive)

C[C@@H]1CN([C@H](C)CO)C(=O)c2cccc(N(C)C)c2O[C@H]1CN(C)Cc1ccc(Oc2ccccc2)cc1
AC50 [10]: 2.51 µM (active)

COc1ccc(C(=N)NOC(=O)C2CCCCC2)cc1
IC50 (Caspase-3): 28.4 µM (active) | IC50 [7]: 9.16 µM (active) | IC50 [8]: 29.6 µM (active) | IC50 [9]: 44.1 µM (active)

C[C@@H]1CCCCO[C@@H](CN(C)CC2CCCCC2)[C@@H](C)CN([C@H](C)CO)C(=O)c2cc(NC(=O)Nc3ccccc3)ccc2O1
AC50 [10]: 2.55 µM (active)
